Measured values published in ChEMBL document CHEMBL1201862, “PubChem BioAssay data set” (2004).
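Growth conditions: 96-well plates. Treatment: test compound, 48 hours, 5 concentrations. Analysis: linear interpolation between bracketing concentrations; unreached endpoints set to highest concentration. GI50 is the concentration that inhibits growth by half.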 Activity calls are given as the source filed them. Rule as the data show it: active = GI50 up to about 1.1 µM and inactive = higher.

What was measured:
Experiment in all cases: NCI tumour cell line growth inhibition, 48 h
[1] = test system: NCI-H226
[2] = test system: Hs-578T
[3] = test system: MCF7
[4] = test system: LOX IMVI
[5] = test system: UACC-257
[6] = test system: T47D
[7] = test system: HL-60
[8] = test system: HCC 2998
[9] = test system: HT-29
[10] = test system: BT-549
[11] = test system: HCT-15
[12] = test system: SF-268
[13] = test system: OVCAR-3
[14] = test system: NCI-H460
[15] = test system: SNB-75
[16] = test system: MDA-MB-435
[17] = test system: HCT-116
[18] = test system: 786-0
[19] = test system: MDA-N

| SMILES | GI50 [1] | GI50 [2] | GI50 [3] | GI50 [4] | GI50 [5] | GI50 [6] | GI50 [7] | GI50 [8] | GI50 [9] | GI50 [10] | GI50 [11] | GI50 [12] | GI50 [13] | GI50 [14] | GI50 [15] | GI50 [16] | GI50 [17] | GI50 [18] | GI50 [19] |
| --- | --- | --- | --- | --- | --- | --- | --- | --- | --- | --- | --- | --- | --- | --- | --- | --- | --- | --- | --- |
| COc1ccc(-c2cc(O)c3c(C)cc(C)nc3n2)cc1 | 35 µM (inactive) | 27.7 µM (inactive) | 15.3 µM (inactive) | 27.4 µM (inactive) | 25.9 µM (inactive) | 28.2 µM (inactive) | 15.8 µM (inactive) | 43.2 µM (inactive) | 20.3 µM (inactive) | 26.4 µM (inactive) | 24.4 µM | 53 µM (inactive) |  |  |  |  |  |  |  |
| COc1ccc(OC)c2c1C(=O)C(Cl)=C(N1CCN(CCOCCO)CC1)C2=O | 16.7 µM (inactive) | 16.1 µM (inactive) | 6.12 µM (inactive) |  | 17.3 µM (inactive) | 4.65 µM (inactive) | 1.08 µM (active) | 12.4 µM (inactive) | 6 µM (inactive) | 14.8 µM (inactive) | 7.38 µM | 13.6 µM (inactive) | 17.3 µM (inactive) | 18.8 µM (inactive) | 15.9 µM (inactive) | 14.4 µM (inactive) | 4.66 µM (inactive) | 5.78 µM (inactive) |  |
| CCOP(=O)(OCC)C(Cc1ccc(OC)c(OC)c1)N=C(c1ccccc1)c1ccccc1 (configuration not stated) | 88.1 µM (inactive) |  | 24.7 µM (inactive) |  | 56.8 µM (inactive) | 20.5 µM (inactive) | 31.3 µM (inactive) | 24.6 µM (inactive) | 36.8 µM (inactive) | > 100 µM (inactive) | 32.5 µM | > 100 µM (inactive) | 34.4 µM (inactive) | 34 µM (inactive) | 27.5 µM (inactive) | 71 µM (inactive) | 27.1 µM (inactive) |  | 59.8 µM (inactive) |
| COc1ccc(C(CC(=O)c2cccs2)C(=O)c2ccc3c(c2)OCO3)cc1 (configuration not stated) |  | > 100 µM (inactive) | > 100 µM (inactive) | > 100 µM (inactive) | > 100 µM (inactive) | 69.5 µM (inactive) | > 100 µM (inactive) | > 100 µM (inactive) |  |  | > 100 µM | > 100 µM (inactive) |  | > 100 µM (inactive) | > 100 µM (inactive) | > 100 µM (inactive) | > 100 µM (inactive) |  | > 100 µM (inactive) |
| O=C1Nc2ccccc2/C1=N/NC(=S)Nc1ccccc1Cl | 10.1 µM (inactive) | 2.67 µM (inactive) | 3.4 µM (inactive) | 2.52 µM (inactive) | 2 µM (inactive) | 11.6 µM (inactive) | 4.44 µM (inactive) | 34.7 µM (inactive) | 5.41 µM (inactive) |  | 2.31 µM | 0.706 µM (active) | 2.16 µM (inactive) | 0.735 µM (active) | 2.82 µM (inactive) | 10.8 µM (inactive) | 0.729 µM (active) | 1.77 µM (inactive) | 20.6 µM (inactive) |
| CN1CC(c2ccccc2)N(CCCCN2CC(c3ccccc3)N(C)CC2c2ccccc2)CC1c1ccccc1 (configuration not stated) | 95.7 µM (inactive) | 73.1 µM (inactive) | 68.7 µM (inactive) | 14.8 µM (inactive) | 13.5 µM (inactive) |  | 29.3 µM (inactive) | 24.4 µM (inactive) | 24.4 µM (inactive) | 37 µM (inactive) | 29.2 µM | > 100 µM (inactive) | 53.3 µM (inactive) | 18.1 µM (inactive) | 29.4 µM (inactive) | 36.1 µM (inactive) | 11.9 µM (inactive) | 73.5 µM (inactive) | 32.1 µM (inactive) |
| CCOC(=O)CCC(NC(=O)c1ccc(Nc2nc3cc(C(F)(F)F)ccc3nc2C(=O)OCC)cc1)C(=O)OCC (configuration not stated) |  |  | > 10 µM (inactive) | 16.8 µM (inactive) | 11 µM (inactive) | 6.25 µM (inactive) | > 100 µM (inactive) | 30.8 µM (inactive) | 4.18 µM (inactive) | 16.3 µM (inactive) | 29.9 µM | 14.1 µM (inactive) | 13.8 µM (inactive) | 18 µM (inactive) |  | 6.87 µM (inactive) | 6.75 µM (inactive) | 2.44 µM (inactive) | 6.9 µM (inactive) |
| C=C(Nc1ccc([N+](=O)[O-])cc1[N+](=O)[O-])c1c/c(=N\NC(N)=S)c2ccccc2o1 | 28.2 µM (inactive) | > 100 µM (inactive) | 40.6 µM (inactive) | > 100 µM (inactive) | 91.6 µM (inactive) |  | 32.8 µM (inactive) | 95.9 µM (inactive) | 87.7 µM (inactive) | > 100 µM (inactive) | 51.9 µM | > 100 µM (inactive) | 22.7 µM (inactive) | > 100 µM (inactive) | 74.8 µM (inactive) | 81.5 µM (inactive) | 33.7 µM (inactive) | 66.8 µM (inactive) | > 100 µM (inactive) |
| Cn1c2ncccc2n2c(=O)cc(O)cc12 | 30.1 µM (inactive) |  | 33.9 µM (inactive) | 53.6 µM (inactive) | > 100 µM (inactive) | 24.1 µM (inactive) |  | 39.4 µM (inactive) | 46.6 µM (inactive) | 94.4 µM (inactive) | 48 µM | 54.2 µM (inactive) | 40.8 µM (inactive) | 60.5 µM (inactive) | 24.4 µM (inactive) | 53.3 µM (inactive) | > 100 µM (inactive) | > 100 µM (inactive) | 81.1 µM (inactive) |
| COCO[C@@H]1C[C@H]2C(O)Nc3ccccc3C(=O)N2C1 (some centres not stated) | > 100 µM (inactive) | > 100 µM (inactive) | > 100 µM (inactive) | > 100 µM (inactive) | > 100 µM (inactive) | > 100 µM (inactive) | > 100 µM (inactive) | > 100 µM (inactive) | > 100 µM (inactive) |  | > 100 µM | > 100 µM (inactive) | > 100 µM (inactive) | > 100 µM (inactive) | > 100 µM (inactive) | > 100 µM (inactive) |  |  | > 100 µM (inactive) |
| C/C1=C\[C@@H](C)C[C@@H](C)OC(=O)[C@@H](C)NC(=O)[C@H](Cc2ccc(O)c(Br)c2)N(C)C(=O)CNC(=O)[C@H](C)C1 |  | < 0.0136 µM (active) | 0.182 µM (active) | < 0.01 µM (active) | < 0.01 µM (active) | 0.126 µM (active) | < 0.01 µM (active) | < 0.01 µM (active) | < 0.01 µM (active) | 0.0641 µM (active) | < 0.01 µM | < 0.0193 µM (active) | < 0.01 µM (active) | < 0.01 µM (active) | < 0.01 µM (active) | < 0.01 µM (active) | < 0.01 µM (active) | < 0.0136 µM (active) | < 0.0304 µM (active) |
| Nc1nccc2c1ncn2[C@H]1C[C@H](O)[C@@H](CO)O1 | > 100 µM (inactive) | > 100 µM (inactive) | > 100 µM (inactive) | > 100 µM (inactive) | > 100 µM (inactive) | > 100 µM (inactive) |  | > 100 µM (inactive) | > 100 µM (inactive) | > 100 µM (inactive) | > 100 µM |  | > 100 µM (inactive) | > 100 µM (inactive) | > 100 µM (inactive) | > 100 µM (inactive) | > 100 µM (inactive) |  | > 100 µM (inactive) |
| CC1(C)CCC[C@]2(C)[C@@H](C=O)C(C=O)=CC[C@@H]12 [POLYGODIAL] | 20 µM (inactive) | 27.9 µM (inactive) | 14.7 µM (inactive) | 19.1 µM (inactive) | 17.1 µM (inactive) | 19.8 µM (inactive) | 18.4 µM (inactive) | 18.4 µM (inactive) | 16.4 µM (inactive) | 25.9 µM (inactive) | 17 µM | 15.3 µM (inactive) | 14.9 µM (inactive) |  |  | 36.6 µM (inactive) | 28.6 µM (inactive) | 37 µM (inactive) | 13.6 µM (inactive) |
| O=C1c2ccccc2C(=O)c2c(OCCOCCO)cccc21 |  | 20.5 µM (inactive) | 74.6 µM (inactive) | 50.2 µM (inactive) | > 100 µM (inactive) | 49.4 µM (inactive) | > 100 µM (inactive) |  | 63.4 µM (inactive) | > 100 µM (inactive) | 63.7 µM | 44.9 µM (inactive) | 28.4 µM (inactive) | 54.7 µM (inactive) | > 100 µM (inactive) | > 100 µM (inactive) | 45.6 µM (inactive) | > 100 µM (inactive) |  |
| O=c1[nH]c2ccccc2n1CCCN1CCC(n2c(=O)[nH]c3cc(Cl)ccc32)CC1 [DOMPERIDONE] | 24 µM (inactive) | 19.6 µM (inactive) | 18 µM (inactive) |  | 16.9 µM (inactive) | 16.3 µM (inactive) | 17.3 µM (inactive) | 16.7 µM (inactive) | 14.6 µM (inactive) | 18 µM (inactive) | 18.7 µM |  | 17.9 µM (inactive) | 17.4 µM (inactive) |  | 16.2 µM (inactive) | 16.8 µM (inactive) | 14.4 µM (inactive) | 15.8 µM (inactive) |
| COC(=O)[C@@H](NC1(c2ccccc2)c2ccccc2-c2ccccc21)[C@@H](C(=O)OC)N(NC(=O)OCc1ccccc1)C(=O)OCc1ccccc1.COC(=O)[C@@H](NC1(c2ccccc2)c2ccccc2-c2ccccc21)[C@H](C(=O)OC)N(NC(=O)OCc1ccccc1)C(=O)OCc1ccccc1 |  | > 100 µM (inactive) | > 100 µM (inactive) | > 100 µM (inactive) | > 100 µM (inactive) | > 100 µM (inactive) | > 100 µM (inactive) | 86.9 µM (inactive) | > 100 µM (inactive) | > 100 µM (inactive) | > 100 µM | > 100 µM (inactive) | > 100 µM (inactive) | > 100 µM (inactive) |  | > 100 µM (inactive) | > 100 µM (inactive) | > 100 µM (inactive) | > 100 µM (inactive) |
